Assay results from patent US20250304549A1, “HYDROXYAMIDE DERIVATIVE AND USE THEREOF” (SICHUAN HUIYU PHARMACEUTICAL CO., LTD., priority 2022, published 2025).
Structures can show the parent of a compound that is named as a salt.

Assays:
NCI-H1417 cells = test: In vitro cell inhibition assay - H1417 cell proliferation (CellTiter-Glo); assay type: cell-based
Outline: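 Cells exposed to 8 compound concentrations (5-fold dilutions) in BEGM with 10% FBS for 7 days at 37° C., 5% CO2. Viable cells measured by CellTiter-Glo luminescence; inhibition versus no-inhibitor and no-cell controls, IC50 fitted.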

pan-HDAC = test: In vitro enzyme inhibition assay - HDAC (HDAC-Glo I/II), pan-HDAC; assay type: biochemical
Outline: (§1)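 The compound, serially diluted 5-fold in DMSO across 8 concentrations starting from a 1 mM stock, was made up as 4× working solutions in HDAC buffer. It was then tested in the HDAC-Glo I/II system, and luminescence was recorded. IC50 values came from variable-slope four-parameter curves of inhibition rate.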

HDAC1 = HDAC1 (Homo sapiens (Human), UniProt Q13547); test: In vitro enzyme inhibition assay - HDAC (HDAC-Glo I/II), HDAC1; assay type: biochemical; conditions: read-out: HDAC IC50 (nM) HDAC 1
Description: 2. In Vitro Enzyme Inhibition Assay—HDAC
The effect of the compound on the enzymatic activity of pan-HDAC and two isoforms (HDAC1 and HDAC8) was examined using the HDAC-Glo I/II Assay and Screening System assay to assess the level of inhibition of HDAC protease activity and selectivity in each isoform. The proteins and detection reagents were from the HDAC-Glo™ I/II Assay and Screening System (Promega). A 1 mM stock solution of the compound was prepared in DMSO and diluted in a 5-fold gradient to create a series of 8 concentrations, and a specific volume of the highest concentration was diluted 25 times with HDAC Buffer to obtain 4× working solution of the compound. […] The 384-well plate was then read on a multifunctional microplate reader, with the Luminescence channel selected to record Luminescence values (RLU). The inhibition rate was calculated using the following formula: […]
Note: ‘Negative’ refers to the group without the inhibitor; ‘Blank’ refers to the group without the enzyme.
The IC50 value was calculated by fitting the inhibition rate by GraphPad Prism software, employing log (inhibitor) vs. response-Variable Slope (four parameters) model.

HDAC8 = HDAC8 (Homo sapiens (Human), UniProt Q9BY41); test: In vitro enzyme inhibition assay - HDAC (HDAC-Glo I/II), HDAC8; assay type: biochemical; conditions: read-out: HDAC IC50 (nM) HDAC 8
Outline: as §1

NCI-H69 cells = test: In vitro cell inhibition assay - NCI-H69 cell proliferation (CellTiter-Glo); assay type: cell-based; conditions: Homo sapiens, NCI-H69, H69 small cell lung cancer cell proliferation
Outline: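 Cells seeded at 1×10^3 per well and incubated overnight at 37° C., 5% CO2, then treated with 8-point 5-fold compound dilutions in RPMI-640 with 20% FBS for 7 days. Viable cells measured by CellTiter-Glo luminescence; IC50 fitted from inhibition relative to no-inhibitor and no-cell controls.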

LSD1 = LSD1 (Homo sapiens (Human), UniProt O60341); test: In vitro enzyme inhibition assay - LSD1 (HTRF); assay type: biochemical
NCI-H526 cells = test: In vitro cell inhibition assay - NCI-H526 cell proliferation (CellTiter-Glo); assay type: cell-based; conditions: Homo sapiens, NCI-H526, 120 h, H526 small cell lung cancer cell proliferation, 5 days
Outline: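 NCI-H526 cells plated at 1×10^3 per well overnight, then treated with 8 concentrations (5-fold dilutions) in RPMI-640 with 10% FBS for 5 days at 37° C., 5% CO2. Viable cells quantified by CellTiter-Glo luminescence; IC50 fitted from inhibition rates relative to no-inhibitor and no-cell controls.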

[1] = Homo sapiens, NCI-H1417, H1417 small cell lung cancer cell proliferation

HDAC8, sequence (Q9BY41 whole entry): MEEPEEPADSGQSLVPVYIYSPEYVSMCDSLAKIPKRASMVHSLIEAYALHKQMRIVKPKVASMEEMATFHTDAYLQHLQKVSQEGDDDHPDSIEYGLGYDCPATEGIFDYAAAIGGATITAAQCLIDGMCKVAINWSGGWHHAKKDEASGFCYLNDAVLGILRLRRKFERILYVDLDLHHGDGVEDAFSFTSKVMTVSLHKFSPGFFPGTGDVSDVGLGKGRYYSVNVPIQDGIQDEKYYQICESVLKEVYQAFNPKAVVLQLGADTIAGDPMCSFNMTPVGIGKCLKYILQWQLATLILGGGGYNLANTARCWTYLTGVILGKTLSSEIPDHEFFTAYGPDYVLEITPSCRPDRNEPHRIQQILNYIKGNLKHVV
HDAC1, sequence (Q13547 whole entry): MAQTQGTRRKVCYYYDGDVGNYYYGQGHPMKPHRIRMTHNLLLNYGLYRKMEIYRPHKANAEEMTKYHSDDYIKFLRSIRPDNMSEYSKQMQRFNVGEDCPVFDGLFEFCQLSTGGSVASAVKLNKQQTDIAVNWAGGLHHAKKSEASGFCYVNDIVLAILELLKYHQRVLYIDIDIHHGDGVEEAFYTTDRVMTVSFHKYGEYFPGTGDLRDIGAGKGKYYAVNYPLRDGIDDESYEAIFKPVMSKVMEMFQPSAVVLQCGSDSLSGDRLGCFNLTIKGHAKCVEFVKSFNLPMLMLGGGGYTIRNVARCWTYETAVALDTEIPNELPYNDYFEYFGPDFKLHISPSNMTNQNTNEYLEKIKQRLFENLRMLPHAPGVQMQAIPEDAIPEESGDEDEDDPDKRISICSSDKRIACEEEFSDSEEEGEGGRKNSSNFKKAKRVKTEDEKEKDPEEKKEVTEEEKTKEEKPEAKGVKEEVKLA

| SMILES | IC50 (NCI-H1417 cells; [1]) [nM] | IC50 (pan-HDAC) [nM] | IC50 (HDAC1) [nM] | IC50 (HDAC8) [nM] | IC50 (NCI-H69 cells) [nM] | IC50 (LSD1) [nM] | IC50 (NCI-H1417 cells; H1417 small cell lung cancer cell proliferation) [nM] | IC50 (NCI-H526 cells) [nM] |
| --- | --- | --- | --- | --- | --- | --- | --- | --- |
| COc1ccc(-c2c(-c3ccc(C#N)c(F)c3)nc(N3CCC(N)CC3)n3ccnc23)cc1OCCCCCCC(=O)NO [Example 20, 7-(5-(5-(4-aminopiperidin-1-yl)-7-(4-cyano-3-fluorophenyl)imidazo[1,2-c]pyrimidin-8-yl)-2-methoxyphenoxy)-N-hydroxyheptanamide hydrochloride] | 845 | 96.5 | 311 | 446 | – | 16.9 | – | – |
| N#Cc1ccc(-c2nc(N3CCC(N)CC3)n3ccnc3c2-c2ccc(OCCCCCCC(=O)NO)c(O)c2)cc1F [Example 21, 7-(4-(5-(4-Aminopiperidin-1-yl)-7-(4-cyano-3-fluorophenyl)imidazo[1,2-c]pyrimidin-8-yl)-2-hydroxyphenoxy)-N-hydroxyheptanamide hydrochloride] | 65 | 119 | 400 | 275 | – | 0.05 | – | – |
| CNC1CCN(c2ncc(-c3ccc(OCCCCCCC(=O)NO)c(O)c3)c(-c3ccc(C#N)c(F)c3)c2C#N)CC1 [Example 24, 7-(4-(5-cyano-4-(4-cyano-3-fluorophenyl)-6-(4-(methylamino)piperidin-1-yl)pyridin-3-yl)-2-hydroxyphenoxy)-N-hydroxyheptanamide hydrochloride] | 42.3 | 5.83 | 8.28 | 118 | – | 0.41 | – | – |
| Cc1ccc(-c2c(-c3ccc(C#N)c(F)c3)nc(N3CCC(NCCCCCCC(=O)NO)CC3)n3ccnc23)cc1O [Example 34, 7-(1-(7-(4-cyano-3-fluorophenyl)-8-(3-hydroxy-4-methylphenyl)imidazo[1,2-c]pyrimidin-5-yl)piperidin-4-yl)amino)-N-hydroxyheptanamide Hydrochloride] | – | 552 | 1060 | 353 | – | 1.13 | 140 | – |
| CNC1CCN(c2ncc(-c3ccc(NCc4ccc(C(=O)NO)cc4)c(O)c3)c(-c3ccc(C#N)c(F)c3)c2C#N)CC1 [Example 39, 4-((4-(4-(5-Cyano-4-(4-cyano-3-fluorophenyl)-6-(4-(methylamino)piperidin-1-yl)pyridin-3-yl)-2-hydroxyphenyl)amino)methyl)-N-hydroxybenzamide hydrochloride] | 5.2 | 167 | 335 | 207 | 2390 | 0.15 | – | – |
| Cc1ccc(-c2c(-c3ccc(C#N)c(F)c3)nc(N3CCC(NC(=O)CCCCCCC(=O)NO)CC3)n3ccnc23)cc1O [Example 56, N^1-(1-(7-(4-cyano-3-fluorophenyl)-8-(3-hydroxy-4-methylphenyl)imidazo[1,2-c]pyrimidin-5-yl)piperidin-4-yl)-N^8-hydroxyoctanediamide hydrochloride] | 5.4 | 467 | 642 | 893 | 1280 | 91.5 | – | – |
| N#Cc1ccc(-c2c(-c3ccc(NC(=O)CCCCCCC(=O)NO)c(O)c3)cnc(N3CCC(N)CC3)c2C#N)cc1F [Example 58, N^1-(4-(6-(4-aminopiperidin-1-yl)-5-cyano-4-(4-cyano-3-fluorophenyl)pyridin-3-yl)-2-hydroxyphenyl)-N^8-hydroxyoctanediamide hydrochloride] | 46.3 | 31.9 | 47.4 | 136 | 3000 | 0.1 | – | – |
| COc1ccc(-c2cnc(N3CCC(NCc4ccc(/C=C/C(=O)NO)nc4)CC3)c(CC#N)c2-c2ccc(C#N)c(F)c2)cc1O [Example 217, (E)-3-(5-(((1-(4-(4-cyano-3-fluorophenyl)-3-(cyanomethyl)-5-(3-hydroxy-4-methoxyphenyl)pyridin-2-yl)piperidin-4-yl)amino)methyl)pyridin-2-yl)-N-hydroxyacrylamide formate] | 5.06 | 0.25 | 0.73 | – | 11.1 | 13.6 | – | 20.9 |
| CC(C)(O)COc1ccc(-c2cnc(N3CCC(NCc4ccc(/C=C/C(=O)NO)cc4)CC3)c(CC#N)c2-c2ccc(C#N)c(F)c2)cc1O [Example 218, (E)-3-(4-(((1-(4-(4-Cyano-3-fluorophenyl)-3-(cyanomethyl)-5-(3-hydroxy-4-(2-hydroxy-2-methylpropoxy)phenyl)pyridin-2-yl)piperidin-4-yl)amino)methyl)phenyl)-N-hydroxyacrylamide formate] | 13.4 | 1.01 | 1.77 | – | 15.3 | 10.2 | – | 35.6 |

Second part, the molecule after the results:

| IC50 (NCI-H1417 cells; [1]) [nM] | IC50 (pan-HDAC) [nM] | IC50 (HDAC1) [nM] | IC50 (HDAC8) [nM] | IC50 (NCI-H69 cells) [nM] | IC50 (LSD1) [nM] | IC50 (NCI-H1417 cells; H1417 small cell lung cancer cell proliferation) [nM] | IC50 (NCI-H526 cells) [nM] | SMILES |
| --- | --- | --- | --- | --- | --- | --- | --- | --- |
| 216 | 17.5 | 68.1 | 215 | – | – | – | – | COc1ccc(-c2c(OCCCCCCC(=O)NO)cc(N3CCC(N)CC3)nc2-c2ccc(C#N)c(F)c2)cc1O [Example 1, 7-((6-(4-aminopiperidin-1-yl)-2-(4-cyano-3-fluorophenyl)-3-(3-hydroxy-4-methoxyphenyl)pyridin-4-yl)oxy)-N-hydroxyheptanamide hydrochloride] |
| 51.9 | 66.9 | 92.3 | 289 | 7890 | 1.58 | – | – | COc1ccc(-c2c(OCc3ccc(/C=C/C(=O)NO)cc3)cc(N3CCC(N)CC3)nc2-c2ccc(C#N)c(F)c2)cc1O [Example 2, (E)-3-(4-(((6-(4-Aminopiperidin-1-yl)-2-(4-cyano-3-fluorophenyl)-3-(3-hydroxy-4-methoxyphenyl)pyridin-4-yl)oxy)methyl)phenyl)-N-hydroxyacrylamide hydrochloride] |
| 1.55 | 74.4 | 198 | 320 | 760 | 0.23 | – | – | N#Cc1ccc(-c2nc(N3CCC(N)CC3)n3ccnc3c2-c2ccc(OCc3ccc(/C=C/C(=O)NO)cc3)c(O)c2)cc1F [Example 23, (E)-3-(4-(4-(5-(4-Aminopiperidin-1-yl)-7-(4-cyano-3-fluorophenyl)imidazo[1,2-c]pyrimidin-8-yl)-2-hydroxyphenoxy)methyl)phenyl)-N-hydroxyacrylamide hydrochloride] |
| 25.5 | 270 | 608 | 2330 | – | 0.64 | – | – | COc1cc(N2CCC(N)CC2)nc(-c2ccc(C#N)c(F)c2)c1-c1ccc(/C=C/C(=O)NO)c(O)c1 [Example 28, (E)-3-(4-(6-(4-Amino-piperidin-1-yl)-2-(4-cyano-3-fluorophenyl)-4-methoxypyridin-3-yl)-2-hydroxyphenyl)-N-hydroxyacrylamide formate] |
| 92.2 | 66.9 | 123 | 696 | 3200 | 0.96 | – | – | COc1cc(N2CCC(N)CC2)nc(-c2ccc(C#N)c(F)c2)c1-c1ccc(OC/C=C/C(=O)NO)c(O)c1 [Example 29, (E)-4-(4-(6-(4-Amino-piperidin-1-yl)-2-(4-cyano-3-fluorophenyl)-4-methoxypyridin-3-yl)-2-hydroxyphenoxy)-N-hydroxybut-2-enamide hydrochloride] |
